Reference: paper PMC6268188, “Comparative Studies of the (Anti) Mutagenicity of Baccharis dracunculifolia and Artepillin C by the Bacterial Reverse Mutation Test” (Molecules, 2012)
Values joined by “and” are separate entries in the source; they are usually repeats but may differ in a detail not shown here. Equal entries are not always repeated. Where two headings read alike, the source gives them in different places. Marks after values point to notes of the source that are not given here.

Columns and labels:
[1] = test system: S. typhimurium TA98
[2] = test system: S. typhimurium TA98; test: Antimutagenicity assay (Ames test with known mutagens), strain TA98; type: cell-based, Salmonella typhimurium
[3] = test system: S. typhimurium TA97a
[4] = test system: S. typhimurium TA97a; remark: listed apart in the source
[5] = test system: S. typhimurium TA100
[6] = test system: mouse micronucleus and comet; design: method as in PMID 21259290; conditions: mouse micronucleus and comet assays; cited from earlier work
[7] = test system: S. typhimurium TA102
[8] = test system: S. typhimurium TA100; remark: listed apart in the source
[9] = 0.69 µg/plate + B[a]P 1.0 μg/plate, TA 98, + S9
[10] = 0.69 µg/plate + NOPD 10.0 μg/plate, TA 98, − S9
[11] = 1.37 µg/plate + B[a]P 1.0 μg/plate, TA 98, + S9
[12] = 1.37 µg/plate + NOPD 10.0 μg/plate, TA 98, − S9
[13] = 2.75 µg/plate + B[a]P 1.0 μg/plate, TA 98, + S9
[14] = 2.75 µg/plate + NOPD 10.0 μg/plate, TA 98, − S9
[15] = 5.49 µg/plate + B[a]P 1.0 μg/plate, TA 98, + S9
[16] = 5.49 µg/plate + NOPD 10.0 μg/plate, TA 98, − S9
[17] = […] + B[a]P 1.0 μg/plate, TA 98, + S9
[18] = […] + NOPD 10.0 μg/plate, TA 98, − S9
[19] = 0.69 µg/plate + AA 1.25 μg/plate, TA 97a, + S9
[20] = 0.69 µg/plate + NOPD 10.0 μg/plate, TA 97a, − S9
[21] = 1.37 µg/plate + AA 1.25 μg/plate, TA 97a, + S9
[22] = 1.37 µg/plate + NOPD 10.0 μg/plate, TA 97a, − S9
[23] = 2.75 µg/plate + AA 1.25 μg/plate, TA 97a, + S9
[24] = 2.75 µg/plate + NOPD 10.0 μg/plate, TA 97a, − S9
[25] = 5.49 µg/plate + AA 1.25 μg/plate, TA 97a, + S9
[26] = 5.49 µg/plate + NOPD 10.0 μg/plate, TA 97a, − S9
[27] = […] + AA 1.25 μg/plate, TA 97a, + S9
[28] = […] + NOPD 10.0 μg/plate, TA 97a, − S9
[29] = 0.69 µg/plate + AFB1 0.5 μg/plate, TA 100, + S9
[30] = 0.69 µg/plate + SA 1.25 μg/plate, TA 100, − S9
[31] = 1.37 µg/plate + AFB1 0.5 μg/plate, TA 100, + S9
[32] = 1.37 µg/plate + SA 1.25 μg/plate, TA 100, − S9
[33] = 2.75 µg/plate + AFB1 0.5 μg/plate, TA 100, + S9
[34] = 2.75 µg/plate + SA 1.25 μg/plate, TA 100, − S9
[35] = 5.49 µg/plate + AFB1 0.5 μg/plate, TA 100, + S9
[36] = 5.49 µg/plate + SA 1.25 μg/plate, TA 100, − S9
[37] = […] + SA 1.25 μg/plate, TA 100, − S9

## CC(C)=CCc1cc(/C=C/C(=O)O)cc(CC=C(C)C)c1O [ArtC, 3-{4-hydroxy-3,5-di(3-methyl-2-butenyl)phenyl}-2(E)-propenoic acid]
[1]; 0.69 µg/plate, TA 98, + S9
  MI (mutagenicity index): 0.9
  Number of revertants (M ± SD)/ plate: 28 ± 3 revertants/plate
[1]; 0.69 µg/plate, TA 98, − S9
  MI (mutagenicity index): 1.0
  Number of revertants (M ± SD)/ plate: 21 ± 3 revertants/plate
[1]; 1.37 µg/plate, TA 98, + S9
  MI (mutagenicity index): 1.1
  Number of revertants (M ± SD)/ plate: 32 ± 1 revertants/plate
[1]; 1.37 µg/plate, TA 98, − S9
  MI (mutagenicity index): 1.2
  Number of revertants (M ± SD)/ plate: 24 ± 4 revertants/plate
[1]; 2.75 µg/plate, TA 98, + S9
  MI (mutagenicity index): 1.0
  Number of revertants (M ± SD)/ plate: 29 ± 3 revertants/plate
[1]; 2.75 µg/plate, TA 98, − S9
  MI (mutagenicity index): 1.4
  Number of revertants (M ± SD)/ plate: 28 ± 5 revertants/plate
[1]; 5.49 µg/plate, TA 98, + S9
  MI (mutagenicity index): 1.1
  Number of revertants (M ± SD)/ plate: 32 ± 2 revertants/plate
[1]; 5.49 µg/plate, TA 98, − S9
  MI (mutagenicity index): 1.5
  Number of revertants (M ± SD)/ plate: 29 ± 1 revertants/plate
[2]; [9]
  % inhibition: 38%
  antimutagenic effect class: ** (moderate effect (25% - 40% inhibition))
[2]; [10]
  % inhibition: 37%
  Number of revertants (M ± SD)/ plate: 526 ± 12 revertants/plate
  antimutagenic effect class: ** (moderate effect (25% - 40% inhibition))
[2]; [11]
  % inhibition: 43%
  antimutagenic effect class: *** (strong antimutagenic effect (> 40% inhibition))
[2]; [12]
  % inhibition: 38%
  Number of revertants (M ± SD)/ plate: 520 ± 18 revertants/plate
  antimutagenic effect class: ** (moderate effect (25% - 40% inhibition))
[2]; [13]
  % inhibition: 56%
  antimutagenic effect class: *** (strong antimutagenic effect (> 40% inhibition))
[2]; [14]
  % inhibition: 42%
  Number of revertants (M ± SD)/ plate: 484 ± 31 revertants/plate
  antimutagenic effect class: *** (strong antimutagenic effect (> 40% inhibition))
[2]; [15]
  % inhibition: 56%
  antimutagenic effect class: *** (strong antimutagenic effect (> 40% inhibition))
[2]; [16]
  % inhibition: 37%
  Number of revertants (M ± SD)/ plate: 532 ± 27 revertants/plate
  antimutagenic effect class: ** (moderate effect (25% - 40% inhibition))
[2]; [17]
  % inhibition: 62%
  antimutagenic effect class: *** (strong antimutagenic effect (> 40% inhibition))
[2]; [18]
  % inhibition: 41%
  antimutagenic effect class: *** (strong antimutagenic effect (> 40% inhibition))
[3]
  Number of revertants (M ± SD)/ plate: 891 ± 17 revertants/plate and 1602 ± 17 revertants/plate
[3]; [19]
  % inhibition: 14%
  Number of revertants (M ± SD)/ plate: 1603 ± 26 revertants/plate
  antimutagenic effect class: * (no antimutagenic effect (< 25% inhibition))
[3]; [20]
  % inhibition: 21%
  Number of revertants (M ± SD)/ plate: 876 ± 8 revertants/plate
  antimutagenic effect class: * (no antimutagenic effect (< 25% inhibition))
[3]; [21]
  % inhibition: 13%
  Number of revertants (M ± SD)/ plate: 1617 ± 16 revertants/plate
  antimutagenic effect class: * (no antimutagenic effect (< 25% inhibition))
[3]; [22]
  % inhibition: 22%
  Number of revertants (M ± SD)/ plate: 862 ± 14 revertants/plate
  antimutagenic effect class: * (no antimutagenic effect (< 25% inhibition))
[3]; [23]
  % inhibition: 10%
  Number of revertants (M ± SD)/ plate: 1669 ± 19 revertants/plate
  antimutagenic effect class: * (no antimutagenic effect (< 25% inhibition))
[3]; [24]
  % inhibition: 20%
  Number of revertants (M ± SD)/ plate: 885 ± 19 revertants/plate
  antimutagenic effect class: * (no antimutagenic effect (< 25% inhibition))
[3]; [25]
  % inhibition: 13%
  Number of revertants (M ± SD)/ plate: 1620 ± 21 revertants/plate
  antimutagenic effect class: * (no antimutagenic effect (< 25% inhibition))
[3]; [26]
  % inhibition: 16%
  Number of revertants (M ± SD)/ plate: 933 ± 7 revertants/plate
  antimutagenic effect class: * (no antimutagenic effect (< 25% inhibition))
[3]; TA97a, NOPD
  reduction of NOPD mutagenicity: no antimutagenic activity
[3]; TA97a, with metabolic activation, AA
  reduction of AA mutagenicity: no antimutagenic activity
[3]; [27]
  % inhibition: 14%
  antimutagenic effect class: * (no antimutagenic effect (< 25% inhibition))
[3]; [28]
  % inhibition: 19%
  antimutagenic effect class: * (no antimutagenic effect (< 25% inhibition))
[4]; 0.69 µg/plate, TA 97, + S9
  MI (mutagenicity index): 1.2
  Number of revertants (M ± SD)/ plate: 194 ± 3 revertants/plate
[4]; 0.69 µg/plate, TA 97, − S9
  MI (mutagenicity index): 1.4
  Number of revertants (M ± SD)/ plate: 207 ± 3 revertants/plate
[4]; 1.37 µg/plate, TA 97, + S9
  MI (mutagenicity index): 1.1
  Number of revertants (M ± SD)/ plate: 174 ± 1 revertants/plate
[4]; 1.37 µg/plate, TA 97, − S9
  MI (mutagenicity index): 1.5
  Number of revertants (M ± SD)/ plate: 221 ± 6 revertants/plate
[4]; 2.75 µg/plate, TA 97, + S9
  MI (mutagenicity index): 1.1
  Number of revertants (M ± SD)/ plate: 175 ± 4 revertants/plate
[4]; 2.75 µg/plate, TA 97, − S9
  MI (mutagenicity index): 1.6
  Number of revertants (M ± SD)/ plate: 246 ± 5 revertants/plate
[4]; 5.49 µg/plate, TA 97, + S9
  MI (mutagenicity index): 1.1
  Number of revertants (M ± SD)/ plate: 175 ± 1 revertants/plate
[4]; 5.49 µg/plate, TA 97, − S9
  MI (mutagenicity index): 1.4
  Number of revertants (M ± SD)/ plate: 207 ± 5 revertants/plate
[5]; 0.69 µg/plate, TA 100, + S9
  MI (mutagenicity index): 1.0
  Number of revertants (M ± SD)/ plate: 171 ± 1 revertants/plate
[5]; 0.69 µg/plate, TA 100, − S9
  MI (mutagenicity index): 1.2
  Number of revertants (M ± SD)/ plate: 179 ± 4 revertants/plate
[5]; 1.37 µg/plate, TA 100, + S9
  MI (mutagenicity index): 1.0
  Number of revertants (M ± SD)/ plate: 171 ± 2 revertants/plate
[5]; 1.37 µg/plate, TA 100, − S9
  MI (mutagenicity index): 1.1
  Number of revertants (M ± SD)/ plate: 174 ± 4 revertants/plate
[5]; 2.75 µg/plate, TA 100, + S9
  MI (mutagenicity index): 0.9
  Number of revertants (M ± SD)/ plate: 144 ± 2 revertants/plate
[5]; 2.75 µg/plate, TA 100, − S9
  MI (mutagenicity index): 1.1
  Number of revertants (M ± SD)/ plate: 169 ± 6 revertants/plate
[5]; 5.49 µg/plate, TA 100, + S9
  MI (mutagenicity index): 0.9
  Number of revertants (M ± SD)/ plate: 153 ± 2 revertants/plate
[5]; 5.49 µg/plate, TA 100, − S9
  MI (mutagenicity index): 1.0
  Number of revertants (M ± SD)/ plate: 158 ± 7 revertants/plate
[6]
  genotoxic potential: not genotoxic
[7]; 0.69 µg/plate, TA 102, + S9
  MI (mutagenicity index): 0.9
  Number of revertants (M ± SD)/ plate: 204 ± 4 revertants/plate
[7]; 0.69 µg/plate, TA 102, − S9
  MI (mutagenicity index): 0.9
  Number of revertants (M ± SD)/ plate: 204 ± 4 revertants/plate
[7]; 1.37 µg/plate, TA 102, + S9
  MI (mutagenicity index): 1.0
  Number of revertants (M ± SD)/ plate: 213 ± 3 revertants/plate
[7]; 1.37 µg/plate, TA 102, − S9
  MI (mutagenicity index): 1.0
  Number of revertants (M ± SD)/ plate: 213 ± 3 revertants/plate
[7]; 2.75 µg/plate, TA 102, + S9
  MI (mutagenicity index): 0.9
  Number of revertants (M ± SD)/ plate: 187 ± 5 revertants/plate
[7]; 2.75 µg/plate, TA 102, − S9
  MI (mutagenicity index): 0.9
  Number of revertants (M ± SD)/ plate: 187 ± 5 revertants/plate
[7]; 5.49 µg/plate, TA 102, + S9
  MI (mutagenicity index): 1.0
  Number of revertants (M ± SD)/ plate: 215 ± 5 revertants/plate
[7]; 5.49 µg/plate, TA 102, − S9
  MI (mutagenicity index): 1.0
  Number of revertants (M ± SD)/ plate: 215 ± 5 revertants/plate
[7]; Salmonella typhimurium
  MI (mutagenicity index): 203 ± 6 (0.9)
  Number of revertants (M ± SD)/ plate: 203 ± 6 (0.9) revertants/plate
[8]
  % inhibition: 30 ** %
  Number of revertants (M ± SD)/ plate: 1885 ± 25 revertants/plate and 1507 ± 43 revertants/plate
  antimutagenic effect class: 30 ** (key: *: no antimutagenic effect (< 25% inhibition); **: moderate effect (25% - 40% inhibition); ***: strong antimutagenic effect (> 40% inhibition))
[8]; [29]
  % inhibition: 26%
  Number of revertants (M ± SD)/ plate: 1595 ± 37 revertants/plate
[8]; [30]
  % inhibition: 16%
  Number of revertants (M ± SD)/ plate: 1833 ± 48 revertants/plate
  antimutagenic effect class: * (no antimutagenic effect (< 25% inhibition))
[8]; [31]
  % inhibition: 24%
  Number of revertants (M ± SD)/ plate: 1639 ± 33 revertants/plate
  antimutagenic effect class: * (no antimutagenic effect (< 25% inhibition))
[8]; [32]
  % inhibition: 11%
  Number of revertants (M ± SD)/ plate: 1957 ± 36 revertants/plate
  antimutagenic effect class: * (no antimutagenic effect (< 25% inhibition))
[8]; [33]
  % inhibition: 27%
  Number of revertants (M ± SD)/ plate: 1575 ± 11 revertants/plate
[8]; [34]
  % inhibition: 17%
  Number of revertants (M ± SD)/ plate: 1813 ± 24 revertants/plate
  antimutagenic effect class: * (no antimutagenic effect (< 25% inhibition))
[8]; [35]
  % inhibition: 26%
  Number of revertants (M ± SD)/ plate: 1600 ± 38 revertants/plate
[8]; [36]
  % inhibition: 21%
  Number of revertants (M ± SD)/ plate: 1727 ± 39 revertants/plate
  antimutagenic effect class: * (no antimutagenic effect (< 25% inhibition))
[8]; TA100, with metabolic activation, AFB1
  inhibition of AFB1-induced mutation (text; number = highest observed percent inhibition): did inhibit mutation
[8]; [37]
  % inhibition: 14%
  antimutagenic effect class: * (no antimutagenic effect (< 25% inhibition))
